Results reported in patent publication US9877956B2, “Antiviral compounds and methods of use thereof” (Trana Discovery, Inc., priority 2014, dated 2018).
“And” between values parts separate entries of the source, which are not always exact repeats. Equal entries are not always repeated.

Columns and labels:
Format in all cases: cell-based
[1] = Cytotoxicity in human PBMCs (XTT); settings: PHA-P stimulated PBMCs pooled from three donors; human PBMCs, XTT
Experimental: (§1) In these studies, PHA-P stimulated PBMCs from three donors were pooled together and re-suspended in fresh tissue culture medium at 1×10^6 cells/mL and plated in the interior wells of a 96 well round bottom microplate at 50µl/well. A 100µL volume of 9 concentrations of compound serially diluted were transferred to the round-bottom 96 well plate containing the cells in triplicate. Fifty microliters (µL) of HIV-1 at a pre-determined dilution was added. Each plate contained cell control wells and virus control wells in parallel with the experimental wells. After 7 days in culture, efficacy was evaluated by measuring the reverse transcriptase in the culture supernatants and the cells were stained with the tetrazolium dye XTT to evaluate cytotoxicity.

HUMAN PBMCS = assay: Cytotoxicity in human PBMCs (XTT); settings: for TOXICITY VALUES (XTT - O.D. @ 450/650 nm), SAMPLE: individual samples
Experimental: as §1

HIV-1 92/HT/599 = HIV-1 92/HT/599 replication in human PBMCs, reverse transcriptase in culture supernatants (RLU)
Experimental: as §1

EC50 (HIV-1 92/HT/599; Human immunodeficiency virus 1, PBMC, read-out: EC50 (EC 50%), HIV-1 92/HT/599, human PBMCs): < 3 nM
Structure (SMILES): Cc1cn([C@H]2C[C@H](N=[N+]=[N-])[C@@H](CO)O2)c(=O)[nH]c1=O [AZT, Zidovudine, reference compound]
CC50 at 7 days [1]: > 1000 nM
% Cell Viability (HUMAN PBMCS; 0.003 μM): 114.74%
TOXICITY VALUES (XTT - O.D. @ 450/650 nm), SAMPLE (HUMAN PBMCS; 0.003 μg/ml (so in the source)): 1.2555 O.D. and 1.2949 O.D. and 1.3058 O.D.
% Cell Viability (HUMAN PBMCS; 0.01 μM): 123.74%
TOXICITY VALUES (XTT - O.D. @ 450/650 nm), SAMPLE (HUMAN PBMCS; 0.01 μg/ml (so in the source)): 1.2369 O.D. and 1.6369 O.D.
% Cell Viability (HUMAN PBMCS; 0.032 μM): 111.47%
TOXICITY VALUES (XTT - O.D. @ 450/650 nm), SAMPLE (HUMAN PBMCS; 0.032 μg/ml (so in the source)): 1.2990 O.D. and 1.2908 O.D. and 1.1569 O.D.
% Cell Viability (HUMAN PBMCS; 0.32 μM): 92.20%
TOXICITY VALUES (XTT - O.D. @ 450/650 nm), SAMPLE (HUMAN PBMCS; 0.32 μg/ml (AZT table)): 0.9607 O.D. and 0.9984 O.D. and 1.1398 O.D.
% Cell Viability (HUMAN PBMCS; 1 μM): 81.66%
TOXICITY VALUES (XTT - O.D. @ 450/650 nm), SAMPLE (HUMAN PBMCS; 1 μg/ml (AZT table)): 1.1224 O.D. and 0.5742 O.D. and 1.0479 O.D.
TC 25% (HUMAN PBMCS; human PBMCs, XTT): >1000 nM
TC 95% (HUMAN PBMCS; human PBMCs, XTT): >1000 nM
% Virus Control (HIV-1 92/HT/599; 0.003 μM): 28.53%
Antiviral Test Values Mean RLU (HIV-1 92/HT/599; 0.003 μM): 5503.7 RLU
% Virus Control (HIV-1 92/HT/599; 0.01 μM): 10.36%
Antiviral Test Values Mean RLU (HIV-1 92/HT/599; 0.01 μM): 1999.0 RLU
% Virus Control (HIV-1 92/HT/599; 0.032 μM): 13.16%
Antiviral Test Values Mean RLU (HIV-1 92/HT/599; 0.032 μM): 2538.7 RLU
% Virus Control (HIV-1 92/HT/599; 0.32 μM): 0.99%
Antiviral Test Values Mean RLU (HIV-1 92/HT/599; 0.32 μM): 190.7 RLU
% Virus Control (HIV-1 92/HT/599; 1 μM): 0.56%
Antiviral Test Values Mean RLU (HIV-1 92/HT/599; 1 μM): 112.7 RLU
EC 25% (HIV-1 92/HT/599; HIV-1 92/HT/599, human PBMCs): <3 nM
EC 95% (HIV-1 92/HT/599; HIV-1 92/HT/599, human PBMCs): 99 nM
